Consider one compound from patent publication US20110027293A1, “METHODS AND COMPOSITIONS FOR THE INHIBITION OF VIRAL INFECTION BY TARGETING INTRACELLULAR TRAFFICKING” (priority 2008, published 2011).

The subject of assay [1] is MoMLV. Description: GFP expression of cells infected with MoMLV construct with and without EHNA. Format: cell-based, Moloney murine leukemia virus (MoMLV). Particulars: relative to infection in the absence of EHNA; FIG. 15A vs 15C. As for the experimental part: (§1) The levels of infection are based on the inhibition of GFP expression, which was determined by infection of cells by MoMLV and HCV viral constructs that included cloned GFP. To determine the consequences of dynein inhibition on the viral life cycle, the expression of viral genes was correlated to the expression (or loss of expression) of GFP. Pictured are cells infected with MoMLV and Hepatitis C with and without EHNA-induced dynein inhibition. Brightness is an indication of GFP expression.
(§2) ATPase activity was inhibited using an anti-dynein small organic molecule (erythro-9-(2-hydroxy-3-nonyl)adenine; EHNA) in another set of experiments. EHNA was obtained from A. G. Scientific and dissolved in Dubelco's Modified Eagle's Medium (DMEM). The solution was added to several sets of treated cells with final concentrations of 0.1 μM, 0.2 μM, 0.5 μM, and 1 μM (FIG. 14).
(§3) To determine the consequences of the loss of cytoplasmic dynein motor activity on the viral life cycle, we cloned the green fluorescent protein (GFP) gene into the viral genomes and assessed GFP expression upon loss of cytoplasmic dynein motor activity (FIG. 15).

Assay [2] has as its system hepatitis C virus (HCV). Description: GFP expression of cells infected with HCV construct with and without EHNA. In kind it is cell-based. The settings on record: relative to infection in the absence of EHNA; FIG. 15B vs 15D. As for the experimental part: as §1, §2, §3

With `CCCCCC[C@@H]([C@@H](C)O)n1cnc2c(N)ncnc21` (racemic) [EHNA, erythro-9-(2-hydroxy-3-nonyl)adenine], the “infection by MoMLV (inhibition of GFP expression)” value in assay [1] is on record as “inhibits infection”. In addition, the “infection by hepatitis C virus (inhibition of GFP expression)” value in assay [2] is “inhibits infection”.
